Experimental data as given in patent publication US20020052316A1, “Bax-mediated apoptosis modulating reagents and methods” (priority 1998, published 2002).
Residues, ends and D or L forms follow the SMILES beside them. *: point of attachment. Cbz = O=C(OCc1ccccc1)*; CH2F = FC*

How the values were obtained:
[1] = tested on: caspases of KB apoptotic cell extract (24 kDa PARP cleavage product); assay: Poly(ADP ribosyl) polymerase (PARP) cleavage by KB apoptotic cell extract; type: biochemical, human; design: ability of the extract to drive PARP cleavage: dose or concentration left out as unconfirmed
Method: In FIG. 3C, ^35S-labeled transcription-translation product of PARP cDNA in reticulocyte lysate (5% by volume) was incubated with (FIG. 3C, lanes 2 and 3) or without (FIG. 3C, lane 1) […] apoptotic cytosol protein in a total volume of […], in the presence (FIG. 3C, lane 3) or absence (FIG. 3C, lanes 1 and 2) of 1 mM dATP, and equivalent portions analyzed for the appearance of the 24 kDa cleavage product of poly(ADP ribosyl) polymerase (24 K PARP) by 12% SDS PAGE and fluorography.
Extract was prepared at 4° C. according to the procedure of Liu et al. (supra) with some minor modifications. Briefly, human KB epithelial cells were harvested in PBS containing 1.3 mM Na citrate and 0.6 mM EDTA. The cell pellet was washed in Buffer A/ext (50 mM PIPES, 50 mM KCl, 5 mM EGTA, 2 mM MgCl2, 1 mM dithiothreitol, 20 μM cytochalasin B, pH 7.4), then resuspended in an equal volume of Buffer A/ext. The cells were disrupted by 5 cycles of freeze-thaw interspersed by 5 strokes with a Wheaton glass homogenizer fitted with a B pestle, and centrifuged at […] for 1 hour in a Beckman Ti75 rotor. The resulting supernatant contained 10 mg protein / ml. […]

FL5.12 cells = assay: BAX integration into mitochondrial membrane of FL5.12 cells after IL-3 withdrawal (alkali extraction, anti-BAX Western blot); type: cell-based; details: FL5.12 cells deprived of IL-3 for 12 hours, 50 mM zVAD-fmk
Method: In the absence of a death signal during apoptosis of a cell, BAX is found free in the cytosol of the cell or is peripherally associated with endocellular membrane surfaces. We performed a Western blotting analysis of mitochondrial membranes from FL5.12 cells, immunoblotting anti-BAX antibodies (antibodies commercially available from, for example, Santa Cruz Biotech., Santa Cruz, Calif.; FIG. 1). Briefly, the mitochondrial fraction was prepared from FL5.12 cells maintained in IL-3 (FIG. 1, lanes 1, 2, 5, and 6) or deprived of IL-3 for 12 hours (FIG. 1, lanes 3, 4, 7, and 8), in the absence (FIG. 1, lanes 1, 3, 5, and 7) or presence (FIG. 1, lanes 2, 4, 6, and 8) of […] zVAD-fmk for 12 hours by centrifuging at 200,000×g for 45 min. to yield supernatant and pellet fractions (the pellet fraction contains the mitochondrial membranes). The mitochondrial fractions were analyzed either directly (FIG. 1, lanes 1-4) or following extraction with 0.1 M Na2CO3, pH 11.5 (FIG. 1, lanes 5-8).
Cells were collected, washed twice with phosphate buffered saline, suspended in 2 ml HIM buffer (0.2% w/v BSA, 200 mM mannitol, 70 mM sucrose, 10 mM HEPES-KOH, 1 mM EGTA, pH 7.5), and subjected to homogenization with a Polytron homogenizer (Brinkmann Instruments Inc., Westbury, N.Y.) for 4 bursts of 10 seconds each at a setting of 6.5. All subsequent steps were conducted at 4° C. […]

[2] = tested on: intact mitochondria isolated from rat heart; assay: Mitochondrial protein targeting in vitro (35S-labelled reticulocyte lysate translation products, alkali-resistant insertion); type: biochemical; design: BAX targeting supported by apoptotic high speed cytosol / mitochondrial membrane insertion of BAX with additional cytochrome c: dose or concentration left out as unconfirmed
Description: To examine targeting of BAX into mitochondria in vitro, we employed the ^35S-labelled transcription-translation product of BAX cDNA in rabbit reticulocyte lysate combined with intact mitochondria isolated from rat heart. This is a well documented system that faithfully reflects in vivo import of diverse mitochondrial proteins, including the insertion of integral proteins into the mitochondrial outer membrane (Li and Shore, Science 256:1815-1817, 1992; McBride et al., J. Cell Biol. 119:1451-1457, 1992).
The results of our investigation as to whether or not apoptotic cell extract supports BAX targeting to mitochondria in vitro are presented in FIGS. 3A-3D. Briefly, in the experiments were conducted as follows. In FIG. 3A, ^35S-labeled transcription-translation products of BAX cDNA in rabbit reticulocyte lysate (BAX and BAXΔART) were incubated with purified, intact mitochondria from rat heart in a standard protein import reaction supplemented with 1 mM dATP (FIG. 3A, lanes 3, 4, 6, and 7) or 1 mM dATP and […] apoptotic cytosol protein (Extract) (FIG. 3A, lanes 4 and 7), in a volume of […]. At the end of the reaction, mitochondria were recovered by centrifugation and the pellets analyzed by SDS PAGE and fluorography either directly or after extraction with […], pH 11.5 (Alkali) (FIG. 3A, lanes 5-7).
The heart of one male Sprague Dawley rat (approximately 250 grams) was placed in approximately 100 ml HIM buffer (0.2% w/v BSA, 200 mM mannitol, 70 mM sucrose, 10 mM HEPES-KOH, 1 mM EGTA, pH 7.5) on ice, squeezed several times to force out blood, and transferred to 7.5 ml HIM in a 15-ml corex tube. All subsequent steps were conducted at 4° C. The heart was homogenized with a Polytron homogenizer (Brinkmann Instruments Inc., Westbury, N.Y.) operating for 1 second at setting 6.5. Nuclei and unbroken cells were pelleted at 1800 rpm for 10 min. in a Sorvall SS34 rotor. The supernatant was centrifuged for 10 min. at 7000 rpm. The resulting pellet was resuspended in HIM (minus BSA), centrifuged at 1800 rpm and the mitochondria were collected at 7000 rpm. The mitochondrial pellet was resuspended in cMRM (250 mM sucrose, 10 mM HEPES-KOH, 1 mM ATP, 5 mM Na Succinate, 0.08 mM ADP, 2 mM K2HPO4, pH 7.5) at a concentration of 1 mg of mitochondrial protein per ml, and adjusted to 1 mM dithiothreitol just before use.
cDNAs were transcribed and translated in the presence of ^35S-methionine in a cell-free rabbit reticulocyte lysate system (Promega Corp., Madison, Wis.) according to the manufacturer's directions. For a standard mitochondrial protein import reaction, 5 μl of translation reaction was incubated with 20 μl of Buffer A (20 mM HEPES-KOH, 10 mM KCl, 2.5 mM MgCl2, 1 mM EDTA, 1 mM EGTA, 1 mM dithiothreitol, pH 7.5) and 25 μl mitochondria or mitoplasts in cMRM (1 mg protein / ml) at 30° C or 37° C. for 30 min. to 2 hours. The import reaction was then layered on a 500 μl cushion of 1×MRM (250 mM sucrose, 10 mM HEPES-KOH, pH 7.5) and centrifuged for 4 min. at top speed in a microfuge at 4° C. For alkali extraction, the mitochondrial pellet was resuspended (0.25 mg protein / ml) in freshly prepared 0.1 M Na2CO3, pH 11.5, and incubated for 30 min. on ice. The membranes were then pelleted in an airfuge (commercially available from Beckman Instruments Canada Inc., Montreal, PQ, Canada) operating for 10 min. at 30 psi. The pellet was analyzed by SDS-PAGE and fluorography. […]

COS-7 and CHO cells = assay: Immunofluorescence microscopy with anti-HA antibody of transfected cells; type: cell-based; details: 24 hours
Description: Thus, the enhanced cytotoxicity of HA-BAXΔART compared to HA-BAX in vivo correlates with inhibition of BAX membrane integration by the ART domain in vitro.

[3] = zVAD-fmk added before dATP and incubation at 37° C.
[4] = extract depleted of cytochrome c by immunoadsorption

COC(=O)C[C@H](NC(=O)[C@H](C)NC(=O)[C@@H](NC(=O)OCc1ccccc1)C(C)C)C(=O)CF [zVAD-fmk, reference compound] (Cbz-Val-Ala-Asp(OMe)-CH2F)
ability of the extract to drive PARP cleavage [1, 3]: abolished
BAX integration into mitochondrial membrane in response to IL-3 withdrawal (FL5.12 cells; alkaline-resistant BAX): partly blocked
recovery of total BAX associated with mitochondria (FL5.12 cells; no alkali extraction): did not significantly influence
BAX targeting supported by apoptotic high speed cytosol [2, 3]: effectively inhibit

cytochrome c: cytochrome c protein added to apoptotic cell extract or reticulocyte lysate
PARP cleavage after add-back to cytochrome c depleted extract [1, 4]: re-instated
mitochondrial membrane insertion of BAX with additional cytochrome c ([2]; cytochrome c added to apoptotic cytosol): No improvement
BAX targeting after add-back to cytochrome c depleted extract [2, 4]: re-instated
BAX targeting with cytochrome c alone ([2]; reticulocyte lysate translation mixtures, no extract): failed to stimulate

HA-BAX: hemagglutinin epitope tagged BAX expressed by transfection
cells expressing the HA-tagged protein (COS-7 and CHO cells): 7.5%

BAX: full length murine BAX proapoptotic protein, translated in rabbit reticulocyte lysate
mitochondrial targeting / membrane integration in vitro ([2]; absence of apoptotic cell extract, resistance to extraction at alkaline pH): failed to target mitochondria
